In ChEMBL document CHEMBL1201862, “PubChem BioAssay data set” (2004):
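Interpolation was linear, between the two tested concentrations surrounding the appropriate level; five concentrations were tested over 48 hours in 96-well plates. Abbreviation: GI50, concentration required for 50% inhibition of growth.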 Activity calls are given as the source filed them. Cut-off read from the data, not from the text of the source: active = GI50 up to about 1.1 µM and inactive = higher.

How the values were obtained:
Experiment in all cases: DTP human tumour cell line panel, 48 h
786-0 = system: 786-0
ACHN = system: ACHN
CCRF-CEM = system: CCRF-CEM
COLO 205 = system: COLO 205
EKVX = system: EKVX
HOP-62 = system: HOP-62
HOP-92 = system: HOP-92
K562 = system: K562
LOX IMVI = system: LOX IMVI
NCI-H23 = system: NCI-H23
OVCAR-3 = system: OVCAR-3
SR = system: SR
T47D = system: T47D
UACC-257 = system: UACC-257
MDA-MB-231 = system: MDA-MB-231
MOLT-4 = system: MOLT-4
Malme-3M = system: Malme-3M
NCI-H460 = system: NCI-H460
OVCAR-4 = system: OVCAR-4
A498 = system: A498

| SMILES | GI50 (786-0) | GI50 (ACHN) | GI50 (CCRF-CEM) | GI50 (COLO 205) | GI50 (EKVX) | GI50 (HOP-62) | GI50 (HOP-92) | GI50 (K562) | GI50 (LOX IMVI) | GI50 (NCI-H23) | GI50 (OVCAR-3) | GI50 (SR) | GI50 (T47D) | GI50 (UACC-257) | GI50 (MDA-MB-231) | GI50 (MOLT-4) | GI50 (Malme-3M) | GI50 (NCI-H460) | GI50 (OVCAR-4) | GI50 (A498) |
| --- | --- | --- | --- | --- | --- | --- | --- | --- | --- | --- | --- | --- | --- | --- | --- | --- | --- | --- | --- | --- |
| CC1C(c2ccc(F)cc2)c2cc3c(cc2OC1N1CCCC1)OCO3 (stereo unspecified) | 45.1 µM (inactive) | 27.7 µM (inactive) | 30.8 µM (inactive) | 49.5 µM (inactive) | 34.1 µM (inactive) | 46.3 µM (inactive) | 15.5 µM (inactive) | 42 µM (inactive) | 83.8 µM (inactive) | 64.9 µM (inactive) | 43.7 µM (inactive) | 35.2 µM (inactive) | 35.7 µM (inactive) | 55.1 µM (inactive) |  |  |  |  |  |  |
| S=C1/C(=N/c2ccccc2)N(c2ccccc2)/C(=N\c2cccc[n+]2Cc2ccccc2)N1c1ccccc1 | 15.8 µM (inactive) | 17 µM (inactive) |  | 17.1 µM (inactive) | 19.7 µM (inactive) | 13 µM (inactive) | 16.6 µM (inactive) | 4.25 µM (inactive) |  | 19 µM (inactive) | 18.5 µM (inactive) | 15.3 µM (inactive) | 22.8 µM (inactive) | 17.3 µM (inactive) | 14.9 µM (inactive) | 8.79 µM (inactive) | 14.4 µM (inactive) | 18.7 µM (inactive) |  |  |
| CCn1c(=O)c2c3ccc(OC(C)=O)cc3[nH]c2c2ccc(OC(C)=O)cc21 | 58.1 µM (inactive) | 31.9 µM (inactive) | 15.2 µM (inactive) | 30.9 µM (inactive) |  | 58.1 µM (inactive) | 43.5 µM (inactive) | 24 µM (inactive) |  | 40.3 µM (inactive) | 32 µM (inactive) | 36.6 µM (inactive) | 18.5 µM (inactive) | 42.1 µM (inactive) | 33.1 µM (inactive) | 17.6 µM (inactive) | 32.2 µM (inactive) | 29 µM (inactive) | 57.4 µM (inactive) |  |
| O=C(Nc1ccccc1F)c1cc2ccc(O)cc2o/c1=N\c1cccc(C(F)(F)F)c1 | 4.57 µM (inactive) | 3.57 µM (inactive) | 1.92 µM (inactive) | 18.6 µM (inactive) | 3.76 µM (inactive) | 7.91 µM (inactive) |  | 2.85 µM (inactive) | 2.69 µM (inactive) | 1.76 µM (inactive) | 3.77 µM (inactive) | 3.31 µM (inactive) | 2.59 µM (inactive) | 4.02 µM (inactive) |  | 2.94 µM (inactive) | 2.69 µM (inactive) | 3.22 µM (inactive) | 2.63 µM (inactive) | 7.4 µM (inactive) |
| Fc1cc(-c2ncc(Cl)cc2Cl)c2cccccc1-2 | > 100 µM (inactive) | > 100 µM (inactive) |  | > 100 µM (inactive) | > 100 µM (inactive) | > 100 µM (inactive) |  |  | > 100 µM (inactive) | > 100 µM (inactive) | > 100 µM (inactive) |  |  | > 100 µM (inactive) | > 100 µM (inactive) |  | > 100 µM (inactive) | > 100 µM (inactive) |  |  |
| O=C1CC(c2cccc(F)c2)Nc2cc3c(cc21)OCO3 (stereo unspecified) | 0.0468 µM (active) | 0.0649 µM (active) | 0.033 µM (active) | 0.0292 µM (active) | < 0.01 µM (active) | 7.38 µM (inactive) | 0.531 µM (active) | < 0.01 µM (active) | 0.0631 µM (active) | 0.0335 µM (active) | 0.0521 µM (active) |  | > 100 µM (inactive) | 0.0638 µM (active) | 0.149 µM (active) | < 0.01 µM (active) | 0.0327 µM (active) | 0.0418 µM (active) | 1.8 µM (inactive) | < 0.01 µM (active) |
| CC1(C)CC(=O)c2c(N)n[nH]c2C1 | > 100 µM (inactive) | > 100 µM (inactive) | > 100 µM (inactive) | > 100 µM (inactive) | > 100 µM (inactive) | > 100 µM (inactive) | > 100 µM (inactive) | > 100 µM (inactive) | > 100 µM (inactive) | > 100 µM (inactive) | > 100 µM (inactive) | > 100 µM (inactive) |  | > 100 µM (inactive) | > 100 µM (inactive) | > 100 µM (inactive) | > 100 µM (inactive) | > 100 µM (inactive) | > 100 µM (inactive) | > 100 µM (inactive) |
| CCOc1ccc(N2C(=O)NC3(c4ccccc4)N(C)C(=O)N(C)C23c2ccccc2)cc1 (stereo unspecified) | > 100 µM (inactive) | > 100 µM (inactive) | > 100 µM (inactive) | > 100 µM (inactive) | > 100 µM (inactive) | > 100 µM (inactive) | > 100 µM (inactive) | 74 µM (inactive) | > 100 µM (inactive) | > 100 µM (inactive) | > 100 µM (inactive) | > 100 µM (inactive) |  | > 100 µM (inactive) | 83.6 µM (inactive) | 30.4 µM (inactive) | > 100 µM (inactive) |  |  | > 100 µM (inactive) |
| COc1cc2c(cc1OC)C1=Cc3ccc(OC)c(OC)c3C(C#N)N1CC2 (stereo unspecified) | 78.5 µM (inactive) | > 100 µM (inactive) | 37.9 µM (inactive) | 18.2 µM (inactive) | 96.8 µM (inactive) | 42.4 µM (inactive) |  |  |  | 29.8 µM (inactive) | 34.2 µM (inactive) |  | 9.2 µM (inactive) | 17.7 µM (inactive) | 28.8 µM (inactive) | 33.1 µM (inactive) | 22.4 µM (inactive) | 31.7 µM (inactive) | 67 µM (inactive) | > 100 µM (inactive) |
| COc1ccc(C)cc1NC(=S)C#N | > 100 µM (inactive) | 30.3 µM (inactive) | 71 µM (inactive) | > 100 µM (inactive) |  | 29.6 µM (inactive) | > 100 µM (inactive) | > 100 µM (inactive) | > 100 µM (inactive) | 33.3 µM (inactive) | 27.1 µM (inactive) |  | > 100 µM (inactive) | 35.3 µM (inactive) | > 100 µM (inactive) |  |  |  |  | > 100 µM (inactive) |
| O=C(O)CSc1nnc2c3ccccc3c3ccccc3c2n1 | 56.2 µM (inactive) | 53.6 µM (inactive) |  | > 100 µM (inactive) | 63 µM (inactive) | 46 µM (inactive) | > 100 µM (inactive) | 59.6 µM (inactive) | 41.6 µM (inactive) | > 100 µM (inactive) | 33.3 µM (inactive) | 31.9 µM (inactive) |  | > 100 µM (inactive) | 67.3 µM (inactive) |  | 30 µM (inactive) | 31.8 µM (inactive) | 45.6 µM (inactive) | > 100 µM (inactive) |
| CCCCCCCCCCCC(=O)OCC1OC(n2cc(F)c(=O)[nH]c2=O)C(NC(=O)OCc2ccccc2)C(O)C1O (stereo unspecified) | 24 µM (inactive) | 57.4 µM (inactive) | 17.6 µM (inactive) | 21.2 µM (inactive) | 30.5 µM (inactive) | 44.9 µM (inactive) | 22.4 µM (inactive) | 21.7 µM (inactive) | 18.4 µM (inactive) | 35.3 µM (inactive) | 25 µM (inactive) | 19.1 µM (inactive) |  | 23.4 µM (inactive) |  | 21.2 µM (inactive) | 21 µM (inactive) | 17.6 µM (inactive) | 23.8 µM (inactive) | 20.1 µM (inactive) |
| OC1(c2cc3ccccc3s2)CCCCC1 | 34 µM (inactive) | 69 µM (inactive) | 21.4 µM (inactive) | 19.9 µM (inactive) | 33.6 µM (inactive) | > 100 µM (inactive) | 18 µM (inactive) | 34.4 µM (inactive) | 45.8 µM (inactive) | 46.6 µM (inactive) | 30.1 µM (inactive) | 38.4 µM (inactive) |  | 32.6 µM (inactive) | 30.8 µM (inactive) | 25.8 µM (inactive) |  | 44.2 µM (inactive) | 39.2 µM (inactive) | 43.2 µM (inactive) |
| CO/N=C(\C(=O)N(C)n1cnnc1)c1csc(NC(c2ccccc2)(c2ccccc2)c2ccccc2)n1 | > 10 µM (inactive) | > 10 µM (inactive) | > 10 µM (inactive) | > 10 µM (inactive) | > 10 µM (inactive) | > 10 µM (inactive) | > 10 µM (inactive) | > 10 µM (inactive) | > 10 µM (inactive) | > 10 µM (inactive) | > 10 µM (inactive) | > 10 µM (inactive) | > 10 µM (inactive) | > 10 µM (inactive) |  | > 10 µM (inactive) | > 10 µM (inactive) | > 10 µM (inactive) | > 10 µM (inactive) | > 10 µM (inactive) |
| [N-]=[N+]=CC(=O)OC1CCOCC1 | > 100 µM (inactive) | > 100 µM (inactive) | > 100 µM (inactive) | > 100 µM (inactive) | > 100 µM (inactive) | > 100 µM (inactive) | > 100 µM (inactive) | > 100 µM (inactive) | > 100 µM (inactive) | > 100 µM (inactive) | > 100 µM (inactive) | > 100 µM (inactive) |  | > 100 µM (inactive) | > 100 µM (inactive) | > 100 µM (inactive) | > 100 µM (inactive) | > 100 µM (inactive) | > 100 µM (inactive) | > 100 µM (inactive) |
| O=C(Nc1cc2c(=O)[nH]c3ccccc3c2oc1=O)c1cnccn1 | > 100 µM (inactive) | > 100 µM (inactive) | > 100 µM (inactive) | > 100 µM (inactive) | > 100 µM (inactive) |  | > 100 µM (inactive) | > 100 µM (inactive) | > 100 µM (inactive) | > 100 µM (inactive) | > 100 µM (inactive) | > 100 µM (inactive) | > 100 µM (inactive) | > 100 µM (inactive) | > 100 µM (inactive) | > 100 µM (inactive) | > 100 µM (inactive) | > 100 µM (inactive) | > 100 µM (inactive) |  |
